Source: patent publication US20250099514A1, “FISH REARING COMPOSITION, AND COMPOSITION FOR PREVENTING OR TREATING FISH DISEASES” (SUMITOMO CHEMICAL COMPANY, LIMITED, priority 2021, published 2025)
Non-standard residues stand in square brackets, D forms with d. Primed or numbered codes have the meaning given here. No end group written: not given here. Dhb′ = not defined here; Dha = C=C(N)C(=O)O

Tests used:
[1] = system: Lactococcus garvieae type I (TUMSAT-K9408 strain); assay: Antibacterial activity test: growth of Lactococcus garvieae type I after shaking culture with the test substance, colony formation on TH agar; type: cell-based; conditions: Experiments 8 and 9, 1 to 10 μM
Protocol: (§1) Examination was performed on whether bacterial cell preparations of NITE BP-03198, NITE BP-03199, NITE BP-03200, NITE BP-03202, ATCC-11454, and NITE ABP-03481 inhibit the growth of Lactococcus garvieae type I (TUMSAT-K9408 strain) and type II (TUMSAT-LgN1 strain). With reference to FIG. 7, the experimental method will be described. To 270 μL of Todd-Hewitt (TH) medium 10, 30 μL of a lactic acid bacterial cell preparation 11 was added. Furthermore, 3 μL of a bacterial solution 12 containing Lactococcus garvieae (approximately 10^5 cfu/mL) was added, and shaking culture was performed at 25° C. for 8 hours. To TH agar medium 14, 5 μL of a bacterial culture solution 13 was dropped, culture was performed at 25° C. for 12 hours, and whether a colony 15 of Lactococcus garvieae formed was observed. If the number of colonies observed was five or less, it was determined that there was antibacterial activity. Lactic acid bacterial cell preparations were prepared in the following manner. For NITE BP-03198, NITE BP-03199, NITE BP-03200, and NITE BP-03202, first, the lactic acid bacteria were each cultured in MRS Broth at a temperature of 30° C., giving culture solutions. Thereafter, the culture solutions were centrifuged to precipitate bacterial cells, and the culture supernatants were collected. […]

[2] = system: Lactococcus garvieae type II (TUMSAT-LgN1 strain); assay: Antibacterial activity test: growth of Lactococcus garvieae type II after shaking culture with the test substance, colony formation on TH agar; type: cell-based; parameters: key: +: presence of antibacterial activity; −: absence of antibacterial activity; conditions: 25° C., 8 hours
Protocol: (§2) Examination was performed on whether bacterial cell preparations of NITE BP-03198, NITE BP-03199, NITE BP-03200, NITE BP-03202, ATCC-11454, and NITE ABP-03481 inhibit the growth of Lactococcus garvieae type I (TUMSAT-K9408 strain) and type II (TUMSAT-LgN1 strain). With reference to FIG. 7, the experimental method will be described. To 270 μL of Todd-Hewitt (TH) medium 10, 30 μL of a lactic acid bacterial cell preparation 11 was added. Furthermore, 3 μL of a bacterial solution 12 containing Lactococcus garvieae (approximately 10^5 cfu/mL) was added, and shaking culture was performed at 25° C. for 8 hours. To TH agar medium 14, 5 μL of a bacterial culture solution 13 was dropped, culture was performed at 25° C. for 12 hours, and whether a colony 15 of Lactococcus garvieae formed was observed. If the number of colonies observed was five or less, it was determined that there was antibacterial activity. Lactic acid bacterial cell preparations were prepared in the following manner. For NITE BP-03198, NITE BP-03199, NITE BP-03200, and NITE BP-03202, first, the lactic acid bacteria were each cultured in MRS Broth at a temperature of 30° C., giving culture solutions. Thereafter, the culture solutions were centrifuged to precipitate bacterial cells, and the culture supernatants were collected. The culture supernatants collected were 10-fold concentrated by using an ultrafiltration membrane (Merck Millipore, AMICON ULTRA-15 3 KDa cutoff), giving bacterial cell preparations. For ATCC-11454 and NITE ABP-03481, bacterial cell preparations were obtained in the same manner as described for NITE BP-03198 and others. As a negative control, medium for lactic acid bacteria (MRS Broth) was added to a bacterial solution containing Lactococcus garvieae.
Examination was performed on whether synthetic plantaricins inhibit the growth of Lactococcus garvieae type I (TUMSAT-K9408 strain) and type II (TUMSAT-LgN1 strain). The method in Experiment 8 is the same as that in Experiment 7 except that synthetic plantaricins were used in place of the lactic acid bacterial cell preparations. Each synthetic plantaricin was synthesized by using common techniques of organic synthesis. A solution containing plantaricin A (plantaricin A), a solution obtained by mixing plantaricin E and plantaricin F at a ratio (mole ratio) of 1:1 (plantaricin EF), a solution obtained by mixing plantaricin J and plantaricin K at a ratio (mole ratio) of 1:1 (plantaricin JK), or a solution obtained by mixing plantaricin NC8α and plantaricin NC8β at a ratio (mole ratio) of 1:1 (plantaricin NC8αβ) was added to a bacterial solution containing Lactococcus garvieae, and shaking culture was performed at 25° C. for 8 hours. […]

[3] = system: Lactococcus garvieae type II (TUMSAT-LgN1 strain); assay: as above; type: cell-based; conditions: Experiments 8 and 9, 1 to 10 μM
Protocol: as §1

[4] = system: Lactococcus garvieae type I (TUMSAT-K9408 strain); assay: Antibacterial activity test: growth of Lactococcus garvieae type I after shaking culture with the test substance, colony formation on TH agar; type: cell-based; parameters: key: +: presence of antibacterial activity; −: absence of antibacterial activity; conditions: 25° C., 8 hours
Protocol: as §2
Examination was performed on whether synthetic plantaricins inhibit the growth of Lactococcus garvieae type I (TUMSAT-K9408 strain) and type II (TUMSAT-LgN1 strain). The method in Experiment 8 is the same as that in Experiment 7 except that synthetic plantaricins were used in place of the lactic acid bacterial cell preparations. Each synthetic plantaricin was synthesized by using common techniques of organic synthesis. A solution containing plantaricin A (plantaricin A), a solution obtained by mixing plantaricin E and plantaricin F at a ratio (mole ratio) of 1:1 (plantaricin EF), a solution obtained by mixing plantaricin J and plantaricin K at a ratio (mole ratio) of 1:1 (plantaricin JK), or a solution obtained by mixing plantaricin NC8α and plantaricin NC8β at a ratio (mole ratio) of 1:1 (plantaricin NC8αβ) was added to a bacterial solution containing Lactococcus garvieae, and shaking culture was performed at 25° C. for 8 hours. The bacterial solutions containing Lactococcus garvieae after culture were each dropped on agar medium, and whether a colony of Lactococcus garvieae formed was observed.
Examination was performed on whether a purified product of nisin A inhibits the growth of Lactococcus garvieae type I (TUMSAT-K9408 strain) and type II (TUMSAT-LgN1 strain). The method in Experiment 9 is the same as those in Experiments 7 and 8 except that a purified product of nisin A was used in place of the lactic acid bacterial cell preparations or the synthetic plantaricins. A purified product of nisin A (manufactured by Sigma-Aldrich Co. LLC) was dissolved in water and removed of insoluble components by centrifugation, giving a nisin A solution. […]

[5] = system: Lactococcus garvieae CLG4 strain; conditions: NPL 4; cited from earlier work
[6] = system: Lactococcus garvieae 03/8460 strain; conditions: NPL 3; cited from earlier work
[7] = system: Lactococcus garvieae type II (TUMSAT-LgN1 strain); assay: Antibacterial activity test: growth of Lactococcus garvieae type II after shaking culture with the test substance, colony formation on TH agar; type: cell-based; parameters: key: +: presence of antibacterial activity,; −: absence of antibacterial activity; conditions: 25° C., 8 hours
Protocol: as §1

[8] = system: Lactococcus garvieae type I (TUMSAT-K9408 strain); assay: Antibacterial activity test: growth of Lactococcus garvieae type I after shaking culture with the test substance, colony formation on TH agar; type: cell-based; parameters: key: +: presence of antibacterial activity,; −: absence of antibacterial activity; conditions: synthetic plantaricin 10 μM; 25° C., 8 hours
Protocol: as §1

| Substance | Inhibition of the growth of Lactococcus garvieae type I (in words) [1] | Antibacterial activity, Lactococcus garvieae TUMSAT-LgN1 ([2]; nisin A solution 1 μM) | Antibacterial activity, Lactococcus garvieae TUMSAT-LgN1 ([2]; nisin A solution 3 μM) | Antibacterial activity, Lactococcus garvieae TUMSAT-LgN1 ([2]; nisin A solution 10 μM) | Inhibition of the growth of Lactococcus garvieae type II (in words) [3] | Antibacterial activity, Lactococcus garvieae TUMSAT-K9408 ([4]; nisin A solution 1 μM) | Antibacterial activity, Lactococcus garvieae TUMSAT-K9408 ([4]; nisin A solution 3 μM) | Antibacterial activity, Lactococcus garvieae TUMSAT-K9408 ([4]; nisin A solution 10 μM) | Growth of the Lactococcus garvieae CLG4 strain [5] | Growth of the Lactococcus garvieae 03/8460 strain [6] | Antibacterial activity, Lactococcus garvieae TUMSAT-LgN1 ([7]; synthetic plantaricin 3 μM) | Antibacterial activity, Lactococcus garvieae TUMSAT-LgN1 ([7]; synthetic plantaricin 10 μM) | Antibacterial activity, Lactococcus garvieae TUMSAT-K9408 [8] | Antibacterial activity, Lactococcus garvieae TUMSAT-LgN1 ([2]; synthetic plantaricin 1 μM) | Antibacterial activity, Lactococcus garvieae TUMSAT-K9408 ([4]; synthetic plantaricin 1 μM) | Antibacterial activity, Lactococcus garvieae TUMSAT-K9408 ([4]; synthetic plantaricin 3 μM) |
| --- | --- | --- | --- | --- | --- | --- | --- | --- | --- | --- | --- | --- | --- | --- | --- | --- |
| nisin A (I[Dhb′]SI[Dha]LCTPGCKTGALMGCNMKTATCHCSIHV[Dha]K; thioether (positions not given here); not fully specified (residues 3, 8, 13, 23, 25, bridges); also: lanthionine thioether rings and dehydro residues not placed; UniProt P13068 24-57, looked up) [purified product of nisin A (manufactured by Sigma-Aldrich Co. LLC) dissolved in water] | inhibited the growth | + | + | + | inhibited the growth | + | + | + |  |  |  |  |  |  |  |  |
| nisin Z (I[Dhb′]SI[Dha]LCTPGCKTGALMGCNMKTATCNCSIHV[Dha]K; thioether (positions not given here); not fully specified (residues 3, 8, 13, 23, 25, bridges); also: lanthionine thioether rings and dehydro residues not placed; UniProt P29559 24-57, looked up) [antibacterial peptide produced by Lactococcus lactis strains TW34 and WA2-67 (literature)] |  |  |  |  |  |  |  |  | inhibited the growth | inhibited the growth |  |  |  |  |  |  |
| plantaricin A | inhibited the growth |  |  |  | inhibited the growth |  |  |  |  |  | + | + | + | − | − | − |
